7 compounds from PubChem BioAssay AID248 (DTP/NCI, 2004) can be followed below.

Inconclusive results and toxic doses are left out.

The assay relates to L1210 leukemia ip in BDF1 mice, survival T/C. As to the kind of experiment: NCI In Vivo Anticancer Drug Screen. Data for tumor model L1210 Leukemia (intraperitoneal) in B6D2F1 (BDF1) mice. The settings on record: endpoint: mean survival time, higher = longer survival. The procedure, abridged:
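In this screen, tumor-bearing mice given compound are compared to those given vehicle, and their survival values are reported as a treated-to-control quotient.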

[1] abbreviates: dose: 100.0 mg/kg/injection, schedule: Q04DX003 (ip), vehicle: Klucel (hydroxypropylcellulose) (HPC).
[2] abbreviates: dose: 200.0 mg/kg/injection, schedule: Q04DX003 (ip), vehicle: Klucel (hydroxypropylcellulose) (HPC).
[3] abbreviates: dose: 400.0 mg/kg/injection, schedule: Q04DX003 (ip), vehicle: Klucel (hydroxypropylcellulose) (HPC).

Regarding `O=C(CCN1CC1)OCCc1ccccc1`, the T/C was 98 % of control (dose: 20.0 mg/kg/injection, schedule: Q04DX003 (ip), vehicle: Klucel (hydroxypropylcellulose) (HPC)); 111 % of control (dose: 25.0 mg/kg/injection, schedule: Q01DX009 (ip), vehicle: Klucel (hydroxypropylcellulose) (HPC)); 95 % of control (dose: 40.0 mg/kg/injection, schedule: Q04DX003 (ip), vehicle: Klucel (hydroxypropylcellulose) (HPC)); 97 % of control (dose: 50.0 mg/kg/injection, schedule: Q01DX009 (ip), vehicle: Klucel (hydroxypropylcellulose) (HPC)); 101 % of control (dose: 80.0 mg/kg/injection, schedule: Q04DX003 (ip), vehicle: Klucel (hydroxypropylcellulose) (HPC)); 98 % of control under setting [1].
With `O=C1Oc2ccccc2C1=O`, the T/C by setting is: (dose: 50.0 mg/kg/injection, schedule: Q01DX009 (ip), vehicle: saline) 98 % of control; (dose: 75.0 mg/kg/injection, schedule: Q01DX001 (ip), vehicle: other) 101 % of control; (dose: 100.0 mg/kg/injection, schedule: Q01DX009 (ip), vehicle: saline) 102 % of control; (dose: 100.0 mg/kg/injection, schedule: Q04DX003 (ip), vehicle: saline) 109 % of control; (dose: 150.0 mg/kg/injection, schedule: Q01DX001 (ip), vehicle: other) 101 % of control; (dose: 200.0 mg/kg/injection, schedule: Q01DX009 (ip), vehicle: saline) 91 % of control. The T/C (dose: 200.0 mg/kg/injection, schedule: Q04DX003 (ip), vehicle: saline) was 98 % of control.
`CC(=O)Nc1nnc(/C=C/c2ccc([N+](=O)[O-])o2)s1`: the T/C is, setting by setting: under setting [1], 87 % of control; under setting [2], 89 % of control; under setting [3], 100 % of control.
`COc1cc2c3c(c4cc(OC)c(OC)cc4c2cc1OC)CN1CCC[C@H]1C3`: the T/C by setting is: (dose: 4.0 mg/kg/injection, schedule: Q01DX015 (ip), vehicle: water) 100 % of control; (dose: 6.0 mg/kg/injection, schedule: Q01DX015 (ip), vehicle: water) 100 % of control; (dose: 6.25 mg/kg/injection, schedule: Q01DX015 (ip), vehicle: water) 112 % of control; (dose: 8.0 mg/kg/injection, schedule: Q01DX Z (ip), vehicle: water) 107 % of control; (dose: 9.0 mg/kg/injection, schedule: Q01DX015 (ip), vehicle: water) 112 % of control; (dose: 12.0 mg/kg/injection, schedule: Q01DX Z (ip), vehicle: water) 100 % of control. The T/C (dose: 14.0 mg/kg/injection, schedule: Q01DX015 (ip), vehicle: water) was 117 % of control; the T/C (dose: 15.0 mg/kg/injection, schedule: Q02DX Z (ip), vehicle: water) is 108 % of control; the T/C (dose: 25.0 mg/kg/injection, schedule: Q01DX015 (ip), vehicle: water) was 98 % of control; the T/C (dose: 30.0 mg/kg/injection, schedule: Q02DX Z (ip), vehicle: water) is 150 % of control; the T/C (dose: 250.0 mg/kg/injection, schedule: Q01DX Z (ip), vehicle: saline) was 154 % of control.
On to `CC1OC(=O)C(C2OC2C)=CC1O` (stereo not given), for which the T/C is, setting by setting: (dose: 12.5 mg/kg/injection, schedule: Q01DX009 (ip), vehicle: saline) 97 % of control; (dose: 12.5 mg/kg/injection, schedule: Q04DX003 (ip), vehicle: saline) 101 % of control; (dose: 25.0 mg/kg/injection, schedule: Q01DX009 (ip), vehicle: saline) 108 % of control; (dose: 25.0 mg/kg/injection, schedule: Q04DX003 (ip), vehicle: saline) 108 % of control; (dose: 50.0 mg/kg/injection, schedule: Q01DX001 (ip), vehicle: saline) 114 % of control; (dose: 50.0 mg/kg/injection, schedule: Q04DX003 (ip), vehicle: saline) 92 % of control.
`O=C(O)C1CC2C3(Cl)C(Cl)=C(Cl)C(Cl)C2(CC1c1c2ccc(=O)c(O)c-2oc2c(O)c(O)ccc12)C3(Cl)Cl` (stereo not given): the T/C is, setting by setting: under setting [1], 96 % of control; under setting [2], 94 % of control; under setting [3], 96 % of control.
Take `Cn1c(=O)[nH]c(=O)c2c1[nH]c(=O)c(=O)n2C`: the T/C was 101 % of control (dose: 50.0 mg/kg/injection, schedule: Q01DX001 (ip), vehicle: carboxymethylcellulose (CMC)); 98 % of control (dose: 100.0 mg/kg/injection, schedule: Q01DX001 (ip), vehicle: carboxymethylcellulose (CMC)); 95 % of control (dose: 200.0 mg/kg/injection, schedule: Q01DX001 (ip), vehicle: carboxymethylcellulose (CMC)); 106 % of control (dose: 400.0 mg/kg/injection, schedule: Q01DX001 (ip), vehicle: carboxymethylcellulose (CMC)).
